Experimental data published in patent US10030027B2, “Soluble guanylate cyclase stimulators” (MERCK SHARP & DOHME CORP., priority 2015, dated 2018).

Columns and labels:
sGC α1/β1 heterodimer = sGC α1/β1 heterodimer (Homo sapiens (Human), UniProt Q02108+Q02153); experiment: Cell-based sGC functional assay (cyclic GMP assay for sGC activator: CASA assay); set-up: % Activation: concentration or dose not given beside the values; conditions: CHO-K1/sGC cells; for Emax: CHO-K1, activity expressed as percentage of compound A (standard), read-out: % Activation; for EC50: inflection point, 4P fit, read-out: IP
In short: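 CHO-K1 cells stably expressing sGC α1/β1 were pre-incubated with or without 1 μM DETA-NO (30 min, 25 °C), then exposed to compounds for 1 hr at 37 °C with 0.5 mM IBMX. Intracellular cGMP was read by HTRF and expressed as a percentage of a reference heme-dependent activator's maximum.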

[1] = target: human recombinant sGC enzyme (Homo sapiens (Human), UniProt Q02108+Q02153); experiment: Size Exclusion Chromatography (SEC) competition binding assay using [3H] Ex-77B as the radioligand; conditions: [3H] Ex-77B radioligand, 24 hours at 37° C.
Procedure: Binding Assay: The binding potencies of sGC compounds to the human recombinant sGC enzyme were determined in a Size Exclusion Chromatography (SEC) competition binding assay using [^3H] Ex-77B as the radioligand. [^3H] Ex-77B was prepared using a standardardized tritium exchange procedure. The parent (non-labeled) molecule was first iodinated then a Pd-catalyzed iodine to tritium exchange provided the labeled compound. […] Assays were conducted in 96-well plates in a total volume of 200 μL. […] Non-specific binding was defined by competition with 1 μM of Ex-77B. After the incubation period, the binding mixtures were loaded onto the gel-filtration plate (ThermoFischer Cat. No. 89808) pre-equilibrated with binding buffer and spun at 1000×g for 3 min at 4° C. on a Bench top centrifuge. The collected eluates in White Frame Clear Well Isoplates (Perkin Elmer Cat #6005040) received 100 μl of UltimaGold scintillation cocktail. The sealed plates were shaken vigorously and span, and counted after 6 hours with a Wallac Microbeta TriLux 1450 LSC & Luminescence Counter (Perkin Elmer). Data from competition experiments were analyzed to determine Ki values using one site fit Ki equation.

SMILES	Emax (sGC α1/β1 heterodimer) [%]	EC50 (sGC α1/β1 heterodimer) [nM]	Ki [1] [nM]	% Activation (sGC α1/β1 heterodimer; activity expressed as percentage of compound A (standard)) [%]
CC(C)(CCc1coc(C2(C)C(=O)Nc3nc(-c4nn(Cc5ccccc5F)c5cc(Cl)ccc45)nc(N)c32)n1)C(=O)O (stereo not drawn) [Example 167B, 4-(2-{4-amino-2-[6-chloro-1-(2-fluorobenzyl)-1H-indazol-3-yl]-5-methyl-6-oxo-6,7-dihydro-5H-pyrrolo[2,3-d]pyrimidin-5-yl}-1,3-oxazol-4-yl)-2,2-dimethyl-butanoic acid]	107	93	0.07	
CC(C)(Cc1coc(C2(C)C(=O)Nc3nc(-c4nn(CC5CCCCO5)c5ncccc45)nc(N)c32)n1)C(=O)O (single isomer, unassigned) [Example 124AA, 3-{2-[4-amino-5-methyl-6-oxo-2-{1-[tetrahydro-2H-pyran-2-ylmethyl]-1H-pyrazolo[3,4-b]pyridin-3-yl}-6,7-dihydro-5H-pyrrolo[2,3-d]pyrimidin-5-yl]-1,3-oxazol-4-yl}-2,2-dimethylpropanoic acid]	76.5	1600	0.506	
CC1(c2nc3cc(C(=O)O)ccc3s2)C(=O)Nc2nc(-c3nn(Cc4ccccc4F)c4cc(Cl)ccc34)nc(N)c21 (stereo not drawn) [Example 130A, 2-{4-amino-2-[6-chloro-1-(2-fluorobenzyl)-1H-indazol-3-yl]-5-methyl-6-oxo-6,7-dihydro-5H-pyrrolo[2,3-d]pyrimidin-5-yl}-1,3-benzothiazole-5-carboxylic acid]	116	1230	0.184	
C[C@@]1(c2ccc(CCc3nn[nH]n3)cc2)C(=O)Nc2nc(-c3nn(CCC(F)(F)C(F)(F)F)c4cc(Cl)ccc34)nc(N)c21 (single isomer, unassigned) [Example 237B]	93.3	5870	0.193	
CC1(c2ccc(/C=C/C(=O)O)cc2)C(=O)Nc2nc(-c3nn(CCC(F)(F)C(F)(F)F)c4cc(Cl)ccc34)nc(N)c21 (stereo not drawn) [Example 157A, (2E)-3-(4-{4-amino-2-[6-chloro-1-(3,3,4,4,4-penta-fluorobutyl)-1H-indazol-3-yl]-5-methyl-6-oxo-6,7-dihydro-5H-pyrrolo[2,3-d]pyrimidin-5-yl}phenyl)prop-2-enoic acid]	143	185	0.258	
CC(C)(CCc1csc(C2(C)C(=O)Nc3nc(-c4nn(Cc5ccccc5F)c5ccccc45)nc(N)c32)n1)C(=O)O (stereo not drawn) [Example 204A, 4-(2-{4-amino-2-[1-(2-fluorobenzyl)-1H-indazol-3-yl]-5-methyl-6-oxo-6,7-dihydro-5H-pyrrolo[2,3-d]pyrimidin-5-yl}-1,3-thiazol-4-yl)-2,2-dimethyl-butanoic acid]	97.8	47	0.269	
CC(C)(Cn1cc(C2(C)C(=O)Nc3nc(-c4nn(CCC(F)(F)C(F)(F)F)c5cc(Cl)ccc45)nc(N)c32)nn1)C(=O)O (stereo not drawn) [Example 31B, 3-(4-{4-amino-2-[6-chloro-1-(3,3,4,4,4-pentafluorobutyl)-1H-indazol-3-yl]-5-methyl-6-oxo-6,7-dihydro-5H-pyrrolo[2,3-d]pyrimidin-5-yl}-1H-1,2,3-triazol-1-yl)-2,2-dimethylpropanoic acid]	130	8330	1.41	
CC(C)(Cc1coc(C2(C)C(=O)Nc3nc(-c4nn(Cc5ncccc5F)c5cc(Cl)ccc45)nc(N)c32)n1)C(=O)O (stereo not drawn) [Example 184A, 3-{2-[4-amino-2-{6-chloro-1-[(3-fluoropyridin-2-yl)methyl]-1H-indazol-3-yl}-5-methyl-6-oxo-6,7-dihydro-5H-pyrrolo[2,3-d]pyrimidin-5-yl]-1,3-oxazol-4-yl}-2,2-dimethyl-propanoic acid]	97.7	230	0.092	
CC(C)(Cc1coc(C2(C)C(=O)Nc3nc(-c4nn(Cc5cccc(F)c5F)c5cc(F)ccc45)nc(N)c32)n1)C(=O)O (stereo not drawn) [Example 200A, 3-(2-{4-amino-2-[1-(2,3-difluoro-benzyl)-6-fluoro-1H-indazol-3-yl]-5-methyl-6-oxo-6,7-dihydro-5H-pyrrolo[2,3-d]pyrimidin-5-yl}-1,3-oxazol-4-yl)-2,2-dimethyl-propanoic acid]	120	220	0.052	
CC(C)(Cc1csc([C@]2(C)C(=O)Nc3nc(-c4nn(Cc5cccc(F)c5F)c5cc(F)ccc45)nc(N)c32)n1)C(=O)O [Example 199A, (S)-3-(2-{4-amino-2-[1-(2,3-difluorobenzyl)-6-fluoro-1H-indazol-3-yl]-5-methyl-6-oxo-6,7-dihydro-5H-pyrrolo[2,3-d]pyrimidin-5-yl}-1,3-thiazol-4-yl)-2,2-dimethyl-propanoic acid]	108	66	0.07	
CC(C)(Cc1coc(C2(C3CC3)C(=O)Nc3nc(-c4nn(Cc5ccccc5F)c5cc(Cl)ccc45)nc(N)c32)n1)C(=O)O (stereo not drawn) [Example 138B, 3-(2-{4-amino-2-[6-chloro-1-(2-fluorobenzyl)-1H-indazol-3-yl]-5-cyclopropyl-6-oxo-6,7-dihydro-5H-pyrrolo[2,3-d]pyrimidin-5-yl}-1,3-oxazol-4-yl)-2,2-dimethylpropanoic acid]	114	375	0.058	
Cc1ccccc1Cn1nc(-c2nc(N)c3c(n2)NC(=O)[C@@]3(C)c2ccc(CCC(=O)O)cc2)c2ccc(Cl)cc21 [Example 68B, (S)-3-(4-{4-amino-2-[6-chloro-1-(2-methylbenzyl)-1H-indazol-3-yl]-5-methyl-6-oxo-6,7-dihydro-5H-pyrrolo[2,3-d]pyrimidin-5-yl}phenyl)propanoic acid]	109	568	3.1	
Cc1ccc(Cn2nc(-c3nc(N)c4c(n3)NC(=O)[C@@]4(C)c3ccc(CCC(=O)O)cc3)c3ccc(Cl)cc32)cc1 [Example 67B, (S)-3-(4-{4-amino-2-[6-chloro-1-(4-methylbenzyl)-1H-indazol-3-yl]-5-methyl-6-oxo-6,7-dihydro-5H-pyrrolo[2,3-d]pyrimidin-5-yl}phenyl)propanoic acid]	115	384	0.154	
CC(C)(Cc1csc([C@]2(C)C(=O)Nc3nc(-c4nn(Cc5cccc(F)c5F)c5cc(Cl)ccc45)nc(N)c32)n1)C(=O)O [Example 181A, (S)-3-(2-{4-amino-2-[6-chloro-1-(2,3-difluorobenzyl)-1H-indazol-3-yl]-5-methyl-6-oxo-6,7-dihydro-5H-pyrrolo[2,3-d]pyrimidin-5-yl}-1,3-thiazol-4-yl)-2,2-dimethyl-propanoic acid]	112	278	0.094	
CC1(c2ccc(CCC(=O)O)cn2)C(=O)Nc2nc(-c3nn(Cc4ccccc4F)c4cc(Cl)ccc34)nc(N)c21 (stereo not drawn) [Example 129A, 3-(6-{4-amino-2-[6-chloro-1-(2-fluorobenzyl)-1H-indazol-3-yl]-5-methyl-6-oxo-6,7-dihydro-5H-pyrrolo[2,3-d]pyrimidin-5-yl}pyridin-3-yl)propanoic acid]	98.5	51	0.117	
CC(C)(Cn1cc(C2(C)C(=O)Nc3nc(-c4nn(Cc5ccccc5F)c5ncccc45)nc(N)c32)cn1)C(=O)O (stereo not drawn) [Example 145A, 3-(4-{4-amino-2-[1-(2-fluoro-benzyl)-1H-pyrazolo [3,4-b]pyridin-3-yl]-5-methyl-6-oxo-6,7-dihydro-5H-pyrrolo[2,3-d]pyrimidin-5-yl}-1H-pyrazol-1-yl)-2,2-dimethyl-propanoic acid]	82.9	391	0.299	
Nc1nc(-c2nn(CCC(F)(F)C(F)(F)F)c3cc(Cl)ccc23)nc2c1C(c1ccc(CCC(=O)O)cc1)(C1CC1)C(=O)N2 (stereo not drawn) [Example 158A, 3-(4-{4-amino-2-[6-chloro-1-(3,3,4,4,4-penta-fluorobutyl)-1H-indazol-3-yl]-5-cyclopropyl-6-oxo-6,7-dihydro-5H-pyrrolo[2,3-d]pyrimidin-5-yl}phenyl)propanoic acid]	88.8	353	0.864	
CC1CCC(Cn2nc(-c3nc(N)c4c(n3)NC(=O)C4(C)c3nc(CC(C)(C)C(=O)O)co3)c3ccccc32)CC1 (single isomer, unassigned) [Example 231AA, 3-{2-[4-amino-5-methyl-2-{1-[-4-methylcyclo-hexylmethyl]-1H-indazol-3-yl}-6-oxo-6,7-dihydro-5H-pyrrolo[2,3-d]pyrimidin-5-yl]-1,3-oxazol-4-yl}-2,2-dimethyl-propanoic acid]		113	0.092	148.2
CC(C)(Cc1ccc(C2(C)C(=O)Nc3nc(-c4nn(Cc5ccccc5F)c5cc(Cl)ccc45)nc(N)c32)nc1)C(=O)O (stereo not drawn) [Example 131B, 3-(6-{4-amino-2-[6-chloro-1-(2-fluorobenzyl)-1H-indazol-3-yl]-5-methyl-6-oxo-6,7-dihydro-5H-pyrrolo[2,3-d]pyrimidin-5-yl}pyridin-3-yl)-2,2-dimethylpropanoic acid]	120	1060	0.125	
